Our source for the class and IC50 values is patent publication US20070010671A1, “Novel quinazoline derivatives and methods of treatment related to the use thereof” (priority 2003, published 2007).

A value given as a limit tells only on which side of the number the result lay.

The first assay addresses MCH receptor (Homo sapiens, UniProt Q99705). The assay can be described thus: High throughput functional screening FLIPR/FDSS6000: inhibition of MCH-evoked intracellular Ca2+ changes. The format is cell-based. Conditions: class by percent of control at 10^-7 M or IC50. The method, boiled down: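 Antagonism is measured as inhibition of the intracellular calcium rise triggered by 50 nM MCH in cells bearing a constitutively active, non-endogenous form of the receptor. Cells are dye-loaded with Fluo4-AM and exposed to compound for 3 min at 37° C before agonist addition.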
Take `CN(C)c1nc(N[C@H]2CC[C@@H](NC(=S)Nc3ccccc3F)CC2)nc2ccccc12` [compound 218]: the class is on record as 3 (Class 3: The value of percent of control at 10^−7 M was more than 60% or the value of IC50 was more than 200 nM.).

As to `Cc1onc(-c2ccccc2)c1NC(=O)NC[C@H]1CC[C@@H](Nc2nc(N(C)C)c3ccccc3n2)CC1` [compound 776], the class was 2 (Class 2: The value of percent of control at 10^−7 M was from 40% to 60% or the value of IC50 was from 50 nM to 200 nM.).

As to `COc1cccc(NC(=S)N[C@H]2CC[C@@H](Nc3nc(N(C)C)c4ccccc4n3)CC2)c1` [compound 228, N-(cis-4-{[4-(dimethylamino)quinazolin-2-yl]amino}cyclohexyl)-N′-(3-methoxyphenyl)thiourea], the class was 2 (Class 2: The value of percent of control at 10^−7 M was from 40% to 60% or the value of IC50 was from 50 nM to 200 nM.).

In the case of `CN(C)c1nc(N[C@H]2CC[C@@H](CNC(=O)Nc3ccc(OC(F)(F)F)cc3)CC2)nc2ccccc12` [compound 752], the class is 3 (Class 3: The value of percent of control at 10^−7 M was more than 60% or the value of IC50 was more than 200 nM.).

As for `Cc1ccc(NC(=S)NC[C@H]2CC[C@@H](Nc3nc(N(C)C)c4ccccc4n3)CC2)c(C)c1` [compound 673], the class was 3 (Class 3: The value of percent of control at 10^−7 M was more than 60% or the value of IC50 was more than 200 nM.).

With `CC(NC(=O)NCC1CCC(Nc2nc(N(C)C)c3ccccc3n2)CC1)c1ccccc1` (stereo not drawn) [compound 466, 1-[4-(4-Dimethylamino-quinazolin-2-ylamino)-cyclohexylmethyl]-3-(1-phenyl-ethyl)-urea], the class is recorded as 2 (Class 2: The value of percent of control at 10^−7 M was from 40% to 60% or the value of IC50 was from 50 nM to 200 nM.).

On to `CN(C)c1nc(N[C@H]2CC[C@@H](NC(=S)Nc3ccc(F)c(F)c3F)CC2)nc2ccccc12` [compound 209, N-(cis-4-{[4-(dimethylamino)quinazolin-2-yl]amino}cyclohexyl)-N′-(2,3,4-trifluorophenyl)thiourea], for which the class was 2 (Class 2: The value of percent of control at 10^−7 M was from 40% to 60% or the value of IC50 was from 50 nM to 200 nM.).

Regarding `CN(C)c1nc(N[C@H]2CC[C@@H](NC(=S)Nc3ccc(F)cc3F)CC2)nc2ccccc12` [compound 211], the class was 3 (Class 3: The value of percent of control at 10^−7 M was more than 60% or the value of IC50 was more than 200 nM.).

Turning to `CN(C)c1nc(N[C@H]2CC[C@@H](CNC(=S)NCc3ccc(Cl)cc3)CC2)nc2ccccc12` [compound 695], the class was 3 (Class 3: The value of percent of control at 10^−7 M was more than 60% or the value of IC50 was more than 200 nM.).

Consider `CN(C)c1nc(N[C@H]2CC[C@@H](NC(=S)Nc3ccc(I)cc3)CC2)nc2ccccc12` [compound 237], for which the class is listed as 1 (Class 1: The value of percent of control at 10^−7 M was less than 40% or the value of IC50 was less than 50 nM.).

Consider `COc1ccc(-c2ccccc2)cc1NC(=S)NC[C@H]1CC[C@@H](Nc2nc(N(C)C)c3ccccc3n2)CC1` [compound 603], for which the class was 3 (Class 3: The value of percent of control at 10^−7 M was more than 60% or the value of IC50 was more than 200 nM.).

Turning to `CN(C)c1nc(N[C@H]2CC[C@@H](CNC(=O)Nc3ccc(C(F)(F)F)cc3)CC2)nc2ccccc12` [compound 536], the class is 3 (Class 3: The value of percent of control at 10^−7 M was more than 60% or the value of IC50 was more than 200 nM.).

The assay is the same for the next values; noted with them: class by percent of control at 10^-7 M or by IC50; read-out: class.
Consider `CN(C)c1nc(N[C@H]2CC[C@@H](NC(=O)Nc3ccc(OCc4ccccc4)cc3)CC2)nc2ccccc12` [compound 139], for which the IC50 is more than 0.2 µM.

Turning to `CN(C)c1nc(N[C@H]2CC[C@@H](NC(=O)Nc3c(Cl)cccc3Cl)CC2)nc2ccccc12` [compound 84], the IC50 was more than 0.2 µM.

In the case of `CN(C)c1nc(N[C@H]2CC[C@@H](NC(=S)Nc3ccccc3Br)CC2)nc2ccccc12` [compound 201], the IC50 is more than 0.2 µM.

With `CN(C)c1nc(N[C@H]2CC[C@@H](NC(=O)Nc3ccc(Br)cc3)CC2)nc2ccccc12` [compound 12, N-(4-bromophenyl)-N′-(cis-4-{[4-(dimethylamino)quinazolin-2-yl]amino}cyclohexyl)urea], the IC50 fell in the range of 0.05 to 0.2 µM.

For `COC(=O)c1cccc(NC(=O)N[C@H]2CC[C@@H](Nc3nc(N(C)C)c4ccccc4n3)CC2)c1` [compound 128, methyl 3-({[(cis-4-{[4-(dimethylamino)quinazolin-2-yl]amino}cyclohexyl)amino]carbonyl}amino)benzoate], the IC50 lay in the range of 0.05 to 0.2 µM.

For `CN(C)c1nc(N[C@H]2CC[C@@H](NC(=O)Nc3ccccc3C(C)(C)C)CC2)nc2ccccc12` [compound 117, N-(2-tert-butylphenyl)-N′-(cis-4-{[4-(dimethylamino)quinazolin-2-yl]amino}cyclohexyl)urea], the IC50 is less than 0.05 µM.

As to `CN(C)c1nc(N[C@H]2CC[C@@H](NC(=O)Nc3ccc(C#N)cc3)CC2)nc2ccccc12` [compound 149, N-(4-cyanophenyl)-N′-(cis-4-{[4-(dimethylamino)quinazolin-2-yl]amino}cyclohexyl)urea], the IC50 was less than 0.05 µM.

The same assay, now with this note: class by percent of control at 10^−7 M or by IC50; read-out: class.
As for `CN(C)c1nc(N[C@H]2CC[C@@H](CNC(=O)Nc3cc(Cl)cc(Cl)c3)CC2)nc2ccccc12` [Example 1024, N-(3,5-dichlorophenyl)-N′-[(cis-4-{[4-(dimethylamino)quinazolin-2-yl]amino}cyclohexyl)methyl]urea], the IC50 is less than 0.05 µM.

Take `CN(C)c1nc(N[C@H]2CC[C@@H](NC(=O)CNc3ccccc3)CC2)nc2ccccc12` [Example 1085, N-(cis-4-{[4-(dimethylamino)quinazolin-2-yl]amino}cyclohexyl)-N2-phenylglycinamide]: the IC50 is less than 0.05 µM.
